Results taken from the NIST ThermoML archive (doi:10.1021/je060271a).
Where “and” joins values, the source holds several entries; their conditions need not be identical. Equal values may be shown once. ± gives the expanded uncertainty stated by the source.

Details: 343.16 K, Liquid, Vibrating tube method

## CCCCCC(=O)OCC(COC(=O)CCCCC)(COC(=O)CCCCC)COC(=O)CCCCC [pentaerythritol tetrahexanoate]
12946 kPa
  mass density: 966.8 ± 1.2 kg/m3
12969 kPa
  mass density: 966.9 ± 1.2 kg/m3
13446 kPa
  mass density: 967.2 ± 1.2 kg/m3
13485 kPa
  mass density: 967.3 ± 1.2 kg/m3
13510 kPa
  mass density: 967.1 ± 1.2 kg/m3
13521 kPa
  mass density: 967.2 ± 1.2 kg/m3
13524 kPa
  mass density: 967.2 ± 1.2 kg/m3
13527 kPa
  mass density: 967.3 ± 1.2 kg/m3
13530 kPa
  mass density: 967.2 ± 1.2 kg/m3
13534 kPa
  mass density: 967.1 ± 1.2 kg/m3
13539 kPa
  mass density: 967.2 ± 1.2 kg/m3
13542 kPa
  mass density: 967.2 ± 1.2 kg/m3
13545 kPa
  mass density: 967.2 ± 1.2 kg/m3
13548 kPa
  mass density: 967.2 ± 1.2 kg/m3
13550 kPa
  mass density: 967.1 ± 1.2 kg/m3
13554 kPa
  mass density: 967.3 ± 1.2 kg/m3
13556 kPa
  mass density: 967.3 ± 1.2 kg/m3
13562 kPa
  mass density: 967.2 ± 1.2 kg/m3
13571 kPa
  mass density: 967.4 ± 1.2 kg/m3
13578 kPa
  mass density: 967.2 ± 1.2 kg/m3
13593 kPa
  mass density: 967.3 ± 1.2 kg/m3
13604 kPa
  mass density: 967.2 ± 1.2 kg/m3 and 967.4 ± 1.2 kg/m3
13605 kPa
  mass density: 967.3 ± 1.2 kg/m3 and 967.2 ± 1.2 kg/m3
13606 kPa
  mass density: 967.2 ± 1.2 kg/m3 and 967.3 ± 1.2 kg/m3
13607 kPa
  mass density: 967.2 ± 1.2 kg/m3
13608 kPa
  mass density: 967.2 ± 1.2 kg/m3 and 967.3 ± 1.2 kg/m3 and 967 ± 1.2 kg/m3
13609 kPa
  mass density: 967.3 ± 1.2 kg/m3
13610 kPa
  mass density: 967.3 ± 1.2 kg/m3
13612 kPa
  mass density: 967.2 ± 1.2 kg/m3
13620 kPa
  mass density: 967.2 ± 1.2 kg/m3
13632 kPa
  mass density: 967.3 ± 1.2 kg/m3
13650 kPa
  mass density: 967.3 ± 1.2 kg/m3
13671 kPa
  mass density: 967.3 ± 1.2 kg/m3
13695 kPa
  mass density: 967.3 ± 1.2 kg/m3
13719 kPa
  mass density: 967.4 ± 1.2 kg/m3
13749 kPa
  mass density: 967.3 ± 1.2 kg/m3
13774 kPa
  mass density: 967.4 ± 1.2 kg/m3
13798 kPa
  mass density: 967.5 ± 1.2 kg/m3
13828 kPa
  mass density: 967.5 ± 1.2 kg/m3
13853 kPa
  mass density: 967.4 ± 1.2 kg/m3
13878 kPa
  mass density: 967.4 ± 1.2 kg/m3
13960 kPa
  mass density: 967.5 ± 1.2 kg/m3
14011 kPa
  mass density: 967.6 ± 1.2 kg/m3
14041 kPa
  mass density: 967.5 ± 1.2 kg/m3
14066 kPa
  mass density: 967.5 ± 1.2 kg/m3
14096 kPa
  mass density: 967.6 ± 1.2 kg/m3
14122 kPa
  mass density: 967.7 ± 1.2 kg/m3
14146 kPa
  mass density: 967.7 ± 1.2 kg/m3
14176 kPa
  mass density: 967.7 ± 1.2 kg/m3
14201 kPa
  mass density: 967.5 ± 1.2 kg/m3
14227 kPa
  mass density: 967.6 ± 1.2 kg/m3
14310 kPa
  mass density: 967.7 ± 1.2 kg/m3
14444 kPa
  mass density: 967.9 ± 1.2 kg/m3
14501 kPa
  mass density: 967.9 ± 1.2 kg/m3
14527 kPa
  mass density: 967.9 ± 1.2 kg/m3
14558 kPa
  mass density: 967.9 ± 1.2 kg/m3
14584 kPa
  mass density: 967.8 ± 1.2 kg/m3
14611 kPa
  mass density: 967.9 ± 1.2 kg/m3
14643 kPa
  mass density: 967.9 ± 1.2 kg/m3
14670 kPa
  mass density: 968 ± 1.2 kg/m3
14696 kPa
  mass density: 968 ± 1.2 kg/m3
14723 kPa
  mass density: 967.9 ± 1.2 kg/m3
14870 kPa
  mass density: 968.1 ± 1.2 kg/m3
14897 kPa
  mass density: 968.1 ± 1.2 kg/m3
14930 kPa
  mass density: 968.2 ± 1.2 kg/m3
14958 kPa
  mass density: 968.2 ± 1.2 kg/m3
14985 kPa
  mass density: 968.3 ± 1.2 kg/m3
15019 kPa
  mass density: 968.2 ± 1.2 kg/m3
15047 kPa
  mass density: 968.3 ± 1.2 kg/m3
15080 kPa
  mass density: 968.3 ± 1.2 kg/m3
15108 kPa
  mass density: 968.2 ± 1.2 kg/m3
15136 kPa
  mass density: 968.3 ± 1.2 kg/m3
15164 kPa
  mass density: 968.3 ± 1.2 kg/m3
15198 kPa
  mass density: 968.4 ± 1.2 kg/m3
15226 kPa
  mass density: 968.5 ± 1.2 kg/m3
15255 kPa
  mass density: 968.4 ± 1.2 kg/m3
15642 kPa
  mass density: 968.6 ± 1.2 kg/m3
15668 kPa
  mass density: 968.6 ± 1.2 kg/m3
15694 kPa
  mass density: 968.7 ± 1.2 kg/m3
15725 kPa
  mass density: 968.7 ± 1.2 kg/m3
15751 kPa
  mass density: 968.8 ± 1.2 kg/m3
15777 kPa
  mass density: 968.7 ± 1.2 kg/m3
15808 kPa
  mass density: 968.8 ± 1.2 kg/m3
15834 kPa
  mass density: 968.8 ± 1.2 kg/m3
15864 kPa
  mass density: 968.9 ± 1.2 kg/m3
15891 kPa
  mass density: 968.9 ± 1.2 kg/m3
15916 kPa
  mass density: 968.8 ± 1.2 kg/m3
15943 kPa
  mass density: 969 ± 1.2 kg/m3
15974 kPa
  mass density: 968.8 ± 1.2 kg/m3
16000 kPa
  mass density: 969 ± 1.2 kg/m3
16057 kPa
  mass density: 969 ± 1.2 kg/m3
16359 kPa
  mass density: 969 ± 1.2 kg/m3
16386 kPa
  mass density: 969.2 ± 1.2 kg/m3
16412 kPa
  mass density: 969.2 ± 1.2 kg/m3
16439 kPa
  mass density: 969.4 ± 1.2 kg/m3
16472 kPa
  mass density: 969.2 ± 1.2 kg/m3
16494 kPa
  mass density: 969.2 ± 1.2 kg/m3
16872 kPa
  mass density: 969.5 ± 1.2 kg/m3
16899 kPa
  mass density: 969.5 ± 1.2 kg/m3
16931 kPa
  mass density: 969.5 ± 1.2 kg/m3
16957 kPa
  mass density: 969.5 ± 1.2 kg/m3
16982 kPa
  mass density: 969.7 ± 1.2 kg/m3
17013 kPa
  mass density: 969.6 ± 1.2 kg/m3
17038 kPa
  mass density: 969.6 ± 1.2 kg/m3
17064 kPa
  mass density: 969.6 ± 1.2 kg/m3
17094 kPa
  mass density: 969.8 ± 1.2 kg/m3
17120 kPa
  mass density: 969.7 ± 1.2 kg/m3
17146 kPa
  mass density: 969.7 ± 1.2 kg/m3
17177 kPa
  mass density: 969.8 ± 1.2 kg/m3
17203 kPa
  mass density: 969.7 ± 1.2 kg/m3
17229 kPa
  mass density: 969.8 ± 1.2 kg/m3
17260 kPa
  mass density: 969.7 ± 1.2 kg/m3
17286 kPa
  mass density: 969.9 ± 1.2 kg/m3
17312 kPa
  mass density: 969.7 ± 1.2 kg/m3
17344 kPa
  mass density: 969.7 ± 1.2 kg/m3
17371 kPa
  mass density: 969.9 ± 1.2 kg/m3
17398 kPa
  mass density: 969.9 ± 1.2 kg/m3
17430 kPa
  mass density: 969.9 ± 1.2 kg/m3
19111 kPa
  mass density: 971.1 ± 1.2 kg/m3
19142 kPa
  mass density: 970.9 ± 1.2 kg/m3
19168 kPa
  mass density: 971.1 ± 1.2 kg/m3
19194 kPa
  mass density: 971.2 ± 1.2 kg/m3
19226 kPa
  mass density: 971.2 ± 1.2 kg/m3
19252 kPa
  mass density: 971.1 ± 1.2 kg/m3
19282 kPa
  mass density: 971.1 ± 1.2 kg/m3
19307 kPa
  mass density: 971.2 ± 1.2 kg/m3
19331 kPa
  mass density: 971.4 ± 1.2 kg/m3
19353 kPa
  mass density: 971.2 ± 1.2 kg/m3
19375 kPa
  mass density: 971.2 ± 1.2 kg/m3
19400 kPa
  mass density: 971.3 ± 1.2 kg/m3
19422 kPa
  mass density: 971.2 ± 1.2 kg/m3
19443 kPa
  mass density: 971.3 ± 1.2 kg/m3
19469 kPa
  mass density: 971.4 ± 1.2 kg/m3
19491 kPa
  mass density: 971.3 ± 1.2 kg/m3
19512 kPa
  mass density: 971.3 ± 1.2 kg/m3
19539 kPa
  mass density: 971.3 ± 1.2 kg/m3
19561 kPa
  mass density: 971.4 ± 1.2 kg/m3
19583 kPa
  mass density: 971.4 ± 1.2 kg/m3
19609 kPa
  mass density: 971.4 ± 1.2 kg/m3
19868 kPa
  mass density: 971.6 ± 1.2 kg/m3
19886 kPa
  mass density: 971.6 ± 1.2 kg/m3
19908 kPa
  mass density: 971.6 ± 1.2 kg/m3
19925 kPa
  mass density: 971.7 ± 1.2 kg/m3
19941 kPa
  mass density: 971.7 ± 1.2 kg/m3
